Where a SMILES comes first, the peptide text is derived from it. The star is where a group is joined. Cbz = O=C(OCc1ccccc1)*
Experiments:
WFS1-ATF6 complex = assay: WFS1-ATF6 co-immunoprecipitation in INS-1 832/13 cells; format: cell-based, rat
Description: Both WFS1 and ATF6 are transmembrane proteins localized to the ER. The association of WFS1 with ATF6 in INS-1 832/13 cells was examined. An anti-WFS1 antibody was used to immunoprecipitate (IP) WFS1 from INS-1 832/13 cells untreated (UT) or treated with the ER stress inducer DTT (1 mM) for 0.5 hr, 1.5 hr, or 3 hr. Immunoprecipitates were then subject to immunoblot (IB) analysis using anti-ATF6, anti-WFS1, and anti-actin antibodies. […] To confirm that the interaction between WFS1 and ATF6 is recovered post-stress, an anti-WFS1 antibody was used to immunoprecipiate (IP) WFS1 from INS-1 832/13 cells untreated (UT) or treated with the ER stress inducer DTT (1 mM) for 2 hr. The cells were then chased in normal media for 0 hr and 3 hr. Immunoprecipitates were subject to immunoblot (IB) analysis using anti-ATF6, anti-WFS1, and anti-actin antibodies. The relative amount of ATF6 protein was quantified using ImageJ software.

ATF6 = ATF6 protein level immunoblot in COS7 cells expressing ATF6-HA and WFS1-FLAG; format: cell-based; conditions: MG132 15 μM, 3 hr
Description: To investigate whether the decrease in ATF6 protein level is proteosome-dependent, COS7 cells expressing ATF6-HA or ATF6-HA and WFS1-FLAG were either untreated (UT) or treated with the proteosome inhibitor MG132 (15 μM) for 3 hr. Lysates were immunoblotted with anti-HA, anti-FLAG, and anti-actin antibodies.

AATF mRNA [1] = assay: AATF mRNA expression by real-time PCR in cells treated with ER stress inducers; format: cell-based, rat; mouse; conditions: for AATF mRNA expression: INS-1 832/13, neuro2A cells and mouse embryonic fibroblasts, 16 hr, TM 5 μg/ml, Tg 1 μM, MG132 2 μM, STR 0.05 and 0.01 μM
Description: Cell culture and transfection of small interfering RNA. Rat insulinoma cells, INS-1 832/13, were a gift from Dr. Christopher Newgard (Duke University Medical Center). These cells were cultured in RPMI 1640 supplemented with 10% FBS. Mouse embryonic fibroblasts, COS7 cells, and Neuro2a cells were maintained in DMEM with 10% fetal bovine serum. Human neuroblastoma cells, SH-SY5Y cells, were cultured in DMEM/F12 with 10% fetal bovine serum.
(§1) Real-time polymerase chain reaction. Total RNA was isolated from cells using RNeasy Mini Kit (Qiagen) and reverse transcribed using 1 μg of total RNA from cells with Oligo-dT primer. For the thermal cycle reaction, the iQ5 system (BioRad, Hercules, Calif.) was used at 95° C. for 10 min, 40 cycles at 95° C. for 10 sec, and at 55° C. for 30 sec.
The relative amount for each transcript was calculated by a standard curve of cycle thresholds for serial dilutions of cDNA samples and normalized to the amount of actin. The polymerase chain reaction (PCR) was done in triplicate for each sample, after which all experiments were repeated twice. The following sets of primers and Power SYBR Green PCR Master Mix (Applied Biosystems, Foster City, Calif.) were used for real-time PCR: […]

AATF mRNA [2] = assay: AATF mRNA by real-time PCR in wild-type, Ire1α−/− and Perk−/− mouse embryonic fibroblasts; format: cell-based; conditions: for attenuation of the induction of AATF: Ire1α−/− cells versus wild-type; for induction of AATF: Perk−/− mouse embryonic fibroblasts versus wild-type
Description: as §1
(§2) The relative amount for each transcript was calculated by a standard curve of cycle thresholds for serial dilutions of cDNA samples and normalized to the amount of actin. The polymerase chain reaction (PCR) was done in triplicate for each sample, after which all experiments were repeated twice. The following sets of primers and Power SYBR Green PCR Master Mix (Applied Biosystems, Foster City, Calif.) were used for real-time PCR:
The pathway by which AATF expression is regulated was investigated. IRE 1 and PERK are ER-resident protein kinases and regulators of the UPR. The expression levels of AATF were measured by real-time PCR in Ire1α^−/− and Perk^−/− mouse embryonic fibroblasts under ER stress conditions. […] To confirm this, Perk^−/− mouse embryonic fibroblasts were transfected with PERK expression plasmid, then AATF gene expression was measured. Chop expression was also measured as a control. PERK expression could restore both AATF and Chop expression (FIG. 2D).

eIF2α phosphorylation = eIF2α phosphorylation immunoblot in mouse embryonic fibroblasts; format: cell-based; set-up: dose or concentration left out as unconfirmed; conditions: 16 hr
Description: (§3) Immunoblotting. Cells were lysed for 15 min on ice at 4° C. in ice-cold M-PER buffer (PIERCE, Rockford, Ill.) containing protease inhibitors. The lysates were then cleared by centrifuging the cells at 13,000 g. Lysates were normalized for total protein, separated by SDS-PAGE (15% gel or 5%-20% gradient gel), and transferred onto a polyvinylidene difluoride membrane. To detect human AATF protein, anti-AATF antibody from Bethyl (Montgomery, Tex.) was used. To detect rat AATF protein, a rabbit anti-AATF antibody generated using a peptide, RPREADPEADPEEATR, was used. […]
It is established that PERK-mediated eIF2α phosphorylation has role in the up-regulation of its target genes (see, e.g., Harding, H. P., et al., Mol Cell 6, 1099-1108 (2000); Harding et al., Nature 397, 271-274 (1999)). Whether eIF2α phosphorylation could increase AATF expression was determined. Wild-type and Perk^−/− mouse fibroblasts were treated with salubrinal, a compound that increases eIF2α phosphorylation (see Boyce, M., et al., Science (New York, N.Y. 307, 935-939 (2005)), then AATF expression was measured, with Chop expression as a control. AATF expression, as well as Chop expression, was increased by salubrinal treatment in both wild-type and Perk^−/− mouse embryonic fibroblasts (FIG. 2C, upper panel). Immunoblot confirmed that eIF2α phosphorylation levels were increased by salubrinal (FIG. 2C, lower panel).

Chop mRNA = Chop mRNA by real-time PCR in wild-type and Perk−/− mouse embryonic fibroblasts; format: cell-based; set-up: dose or concentration left out as unconfirmed; conditions: Salubrinal, 16 hr
Description: as §1, §2
It is established that PERK-mediated eIF2α phosphorylation has role in the up-regulation of its target genes (see, e.g., Harding, H. P., et al., Mol Cell 6, 1099-1108 (2000); Harding et al., Nature 397, 271-274 (1999)). Whether eIF2α phosphorylation could increase AATF expression was determined. […]

Akt1 mRNA = Akt1 mRNA expression by real-time PCR; format: cell-based, rat; mouse; conditions: Tg 1 μM
Description: as §1, §2
Whether Akt1 expression is increased by ER stress was examined. The expression levels of Akt1 mRNA were measured in the presence of ER stress in INS-1 832/13, neuro2A, and mouse embryonic fibroblasts.

AATF = AATF immunoblot of cytoplasmic and nuclear extracts from INS-1 832/13 cells; format: cell-based, rat; conditions: Tg 1 μM
Description: Immunoblotting. Cells were lysed for 15 min on ice at 4° C. in ice-cold M-PER buffer (PIERCE, Rockford, Ill.) containing protease inhibitors. The lysates were then cleared by centrifuging the cells at 13,000 g. Lysates were normalized for total protein, separated by SDS-PAGE (15% gel or 5%-20% gradient gel), and transferred onto a polyvinylidene difluoride membrane. To detect human AATF protein, anti-AATF antibody from Bethyl (Montgomery, Tex.) was used. To detect rat AATF protein, a rabbit anti-AATF antibody generated using a peptide, RPREADPEADPEEATR, was used. Anti-actin and anti-myc (9E10) antibodies were purchased from Sigma (St. Louis, Mo.); anti-eIF2α was purchased from Santa Cruz Biotechnology (Santa Cruz, Calif.); anti-phospho-eIF2α, anti-Akt, anti-Akt1, anti-phospho-Akt, anti-Creb, anti-tubulin, and anti-caspase-3 antibodies were purchased from Cell Signaling (Danvers, Mass.).

Akt = assay: Akt, Akt1 and phosphorylated Akt immunoblot in INS-1 832/13 cells; format: cell-based, rat; conditions: INS1 832/13 cells, Tg 1 μM
Description: as §3
It has been proposed that phosphorylation of Akt is important in protecting cells from apoptosis (Srinivasan, S., et al., Diabetes 54, 968-975 (2005). As shown in FIG. 4C (right panel), phosphorylation level of Akt was increased up to 8 hr after treatment, but decreased at 24 hr. To study the relationship between AATF suppression and Akt phosphorylation, AATF expression was suppressed using siRNA directed against AATF in INS-1 832/13 cells and the cells were treated with thapsigargin for 0, 3, and 8 hr, then Akt expression and Akt phosphorylation levels were measured by immunoblot. Both Akt expression and Akt phosphorylation levels were decreased by AATF siRNA (FIG. 4D). […] INS-1 832/13 cells were infected with the virus and Akt1 expression levels were measured.

For `O[C@@H](CS)[C@@H](O)CS` [DTT], the “interaction of ATF6 and WFS1 post-stress” value (WFS1-ATF6 complex; DTT 1 mM 2 hr, then 3 hour chase in normal media) was “began to recover” and the “dissociation of ATF6 from WFS1” value (WFS1-ATF6 complex; DTT 1 mM, 3 hours post-treatment, time-dependent) was “almost complete dissociation”.
With `CC(C)C[C@@H](C=O)NC(=O)[C@H](CC(C)C)NC(=O)[C@H](CC(C)C)NC(=O)OCc1ccccc1` [MG132] (Cbz-Leu-Leu-Leu-aldehyde) the ATF6 protein levels (ATF6) was “almost full recovery” and the “AATF mRNA expression” value (AATF mRNA [1]) was “up-regulated”.
`O=C(/C=C/c1ccccc1)NC(NC(=S)Nc1cccc2cccnc12)C(Cl)(Cl)Cl` (centres unmarked) [salubrinal] was tested, and the AATF expression (AATF mRNA [2]; wild-type and Perk−/− mouse embryonic fibroblasts, Salubrinal 75 nM, 16 hr) was “increased”, the eIF2α phosphorylation levels (eIF2α phosphorylation) was “increased” and the Chop expression (Chop mRNA) was “increased”.
With `CN[C@@H]1C[C@H]2O[C@@](C)([C@@H]1OC)n1c3ccccc3c3c4c(c5c6ccccc6n2c5c31)C(=O)NC4` [staurosporin] the “AATF mRNA expression” value (AATF mRNA [1]) was “not” and the “increase of Akt1 mRNA expression” value (Akt1 mRNA; INS-1 832/13, neuro2A and mouse embryonic fibroblasts, 16 hr, TM 5 μg/ml, MG132 2 μM, STR 0.05 and 0.01 μM) was “not”.
`C/C=C(/C)C(=O)O[C@H]1C(C)=C2[C@H]([C@@H]1OC(=O)CCCCCCC)[C@@](C)(OC(C)=O)C[C@H](OC(=O)CCC)[C@@]1(O)[C@H]2OC(=O)[C@@]1(C)O` [thapsigargin] was tested, and the “AATF protein expression in cytoplasmic and nuclear extracts” value (AATF) was “up-regulated”, the “AATF mRNA expression” value (AATF mRNA [1]) was “up-regulated” and the “AATF mRNA expression, time course” value (AATF mRNA [1]; INS-1 832/13 cells, Tg 0.5 μM, indicated times) was “continued to increase up to 24 hr”. For the same molecule, the “attenuation of the induction of AATF” value (AATF mRNA [2]) was “not”, the “induction of AATF” value (AATF mRNA [2]) was “attenuated” and the “phosphorylation level of Akt” value (Akt; at 24 hr) was “decreased”. For the same molecule, the “phosphorylation level of Akt” value (Akt; up to 8 hr after treatment) was “increased” and the “time of peak Akt1 mRNA expression during ER stress” value (Akt1 mRNA; INS1 832/13 cells) was 24 h.
With tunicamycin the “AATF mRNA expression” value (AATF mRNA [1]) was “up-regulated”, the “attenuation of the induction of AATF” value (AATF mRNA [2]) was “not” and the “induction of AATF” value (AATF mRNA [2]) was “attenuated”.
